Assay results published in patent US20210369583A1, “COMPOSITIONS FOR PROVIDING SKIN CARE BENEFITS AND METHODS OF USE” (Danisco US Inc., priority 2018, published 2021).

Legend:
Assay type in all cases: cell-based
[1] = system: human living skin explant; test: Immunostaining of carbonylated proteins (FTZ) on human living skin explants
Procedure: (§1) human skin explants of an average diameter of 12 mm (±1 mm) were prepared on an abdoplasty coming from a person). The explants were kept in survival in BEM culture medium at 37° C. in a humid, 5%-CO2 atmosphere.
(§2) On day 0 (D0), day 1, day 2 and day 3 (3 hours before irradiation), the tested products were applied topically on surface of skin explants at the rate of 2 mg/cm^2, twice a day for D1 and D2 and once on DO and D3. […] The medium was half renewed (1 ml per well) on day 2.
(§3) On D3, the culture media of all the batches was replaced by HBSS solution (Hank's Balanced Saline Solution; 1 ml per explant). The batches “UV” were irradiated by UVA+ UVB using a UV simulator Vibert Lourmat RMX 3W with a dose of 18 J/cm2 of UVA (4 MED, minimal erythemal dose) and 0.3 J/cm2 of UVB (2 MED). The unirradiated batches were kept in HBSS in the dark. At the end of the irradiation the explants were put back in 2 mL of BEM medium.
(§4) After fixation for 24 hours in buffered formalin, the samples were dehydrated and impregnated in paraffin using a Leica PEARL dehydration automat. The samples were embedded using a Leica EG 1160 embedding station. 5-μm-thick sections were made using a Leica RM 2125 Minot-type microtome, and the sections were mounted on Superfrost® histological glass slides. The frozen samples were cut into 7-μm-thick sections using a Leica CM 3050 cryostat. Sections were then mounted on Superfrost® plus silanized glass slides. The microscopical observations were realized using a Leica DMLB or Olympus BX43 microscope. Pictures were digitized with a numeric DP72 Olympus camera with CellD storing software.
Protein carbonylation is a type of protein oxidation that can be promoted by reactive oxygen species (ROS), generated by UV exposure. FTZ marker assay was conducted by immunostaining in the living epidermis of human skin explant as follows: Carbonylated proteins were stained on frozen sections with the anti-carbonylated proteins probe (fluorescein-5-thiosemicarbazid-FTZ) (Lifetechnologies, Ref. F-121) diluted at 0.5 μM in MES-Na+ and incubated for 30 minutes in the dark and at room temperature. The staining was observed by epifluorescence and assessed by microscopical observations. Batches analyzed were T, TUV, P1UV, P2UV, P3UV at day 4 also referred to as TJ4, TUVJ4, P1UVJ4, P2UVJ4, P3UVJ4

[2] = system: human living skin explant; test: TUNEL assay (UV-induced DNA damage) on human living skin explants; settings: UV irradiated
Procedure: as §1, §2, §3, §4
DNA oxidization is a type of damage that can be promoted by reactive oxygen species (ROS), generated by UV exposure. […] The staining was assessed by microscopical observation. Batches analyzed were T, TUV, P1UV, P2UV, P3UV at day 4 also referred to as TJ4, TUVJ4, P1UVJ4, P2UVJ4, P3UVJ4 (T=Control batch non treated non irradiated; TJ4=T at Day 4 (D4); TUV: control batch non treated UV irradiated; TUVJ4=[…] at Day 4; P1J4: product A 4% non irradiated at D4; P2J4: product A 2% non irradiated at D4; P3J4: product A 1% non irradiated at D4; P1UV: product A 4% UV irradiated; P1UVJ4: product A 4% UV irradiated at D4 P2UV: product A 2% UV irradiated; P2UVJ4: product A 2% UV irradiated at D4; P3UV: product A 1% UV irradiated; P3UVJ4: product A 1% UV irradiated at D4

[3] = system: human living skin explant; test: Cell viability of human living skin explants (UV study); settings: day 4
Procedure: as §1, §2, §3, §4

O=C(O)[C@@H]1CCCN1 [Combination P4, L-Proline]
effect on UV-induced carbonylated proteins ([1]; UV irradiated): inhibited the formation of carbonylated proteins
Carbonylated proteins (FTZ), variation vs TJ4 ([1]; non irradiated, day 4): ↔ (indicates no variation)
activity against UV-induced DNA damage [2]: strong inhibition of the increase of DNA damage
Cell Viability, variation vs TUVJ4 ([3]; UV irradiated): ↔ (indicates no variation)
Cell Viability, variation vs TJ4 ([3]; non irradiated): ↔ (indicates no variation)
